Marks after values point to notes of the source that are not given here. Strand notation (5' to 3'): a small letter for the sugar, then the base; units joined by * are phosphorothioate-linked, units joined directly phosphodiester-linked; [ ] holds rarer units or linkages, { } end groups; capitals alone tell only the bases. k = constrained ethyl (cEt); [5mC] = 5-methylcytosine; d = 2'-deoxy (DNA)

In one series the test system is Yap1 mRNA. As to the kind of experiment: Antisense inhibition of human Yap1 in A-431 cells by cEt gapmers, single dose (Example 3, RTS36584). Type of series: cell-based. As to conditions: Table 9; A-431 cells, 5,000 cells per well, free uptake, 2,000 nM, approximately 48 hours; RTS36584; normalized to RIBOGREEN; Yap1 mRNA relative to untreated control cells. In a few lines:
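Values are % untreated control: Yap1 mRNA by quantitative RT-PCR (RTS36584), normalized to total RNA by RiboGreen. Before RNA isolation, 5,000 A-431 cells per well were exposed ~48 h to 2,000 nM 16-mer cEt gapmer, delivered without transfection reagent.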
Regarding “958466 (antisense kG*kT*k[5mC]*dA*dT*dT*dA*dA*dG*dG*dA*dT*dG*kT*k[5mC]*kA) [Compound 958466]”, the “YAP1 (% UTC)” value is listed as 9 % UTC.

As for “958471 (antisense k[5mC]*kT*kT*dA*dG*dA*dT*d[5mC]*d[5mC]*dT*dT*d[5mC]*dA*k[5mC]*kA*kG) [Compound 958471]”, the “YAP1 (% UTC)” value is on record as 14 % UTC.

For “958476 (antisense kT*kT*k[5mC]*d[5mC]*dG*dG*dT*dG*d[5mC]*dA*dT*dG*dT*kG*kT*k[5mC]) [Compound 958476]”, the “YAP1 (% UTC)” value was determined as 2 % UTC.

For “958481 (antisense kG*k[5mC]*kA*dA*d[5mC]*dT*dG*dG*d[5mC]*dT*dT*dA*dT*kG*kG*kA) [Compound 958481]”, the “YAP1 (% UTC)” value worked out at 6 % UTC.

As to “958486 (kT*kT*kA*dG*dA*dG*d[5mC]*d[5mC]*dA*dA*d[5mC]*dT*dG*kT*kG*kA; antisense) [Compound 958486]”, the “YAP1 (% UTC)” value is listed as 9 % UTC.

For “958491 (kA*k[5mC]*kT*dA*dA*dA*dT*dG*d[5mC]*dT*dG*dT*dG*kA*k[5mC]*kA; antisense) [Compound 958491]”, the “YAP1 (% UTC)” value came to 4 % UTC.

As to “958496 (k[5mC]*k[5mC]*kT*dT*dA*dT*dA*dA*dG*d[5mC]*dT*d[5mC]*d[5mC]*kT*kA*kA; antisense) [Compound 958496]”, the “YAP1 (% UTC)” value came out at 3 % UTC.

Take “958501 (kT*kG*k[5mC]*d[5mC]*dT*dA*dG*dG*dT*dT*d[5mC]*d[5mC]*dG*kA*k[5mC]*kA; antisense) [Compound 958501]”: the “YAP1 (% UTC)” value came out at 41 % UTC.

“958506 (kG*k[5mC]*kA*dG*dA*dT*dA*dA*dT*d[5mC]*dG*dA*dG*kA*kT*kT; antisense) [Compound 958506]”: the “YAP1 (% UTC)” value was found to be 6 % UTC.

In the case of “958511 (k[5mC]*kA*k[5mC]*dT*dA*d[5mC]*d[5mC]*dA*d[5mC]*dA*d[5mC]*dT*dA*kT*kT*kA; antisense) [Compound 958511]”, the “YAP1 (% UTC)” value is on record as 31 % UTC.

The same series, now with this note: Table 10; A-431 cells, 5,000 cells per well, free uptake, 2,000 nM oligonucleotide, approx. 48 hours; primer probe set RTS36584; Yap1 mRNA normalized to RIBOGREEN, percent of untreated control.
Turning to “958467 (antisense kG*kG*kT*dG*dG*d[5mC]*dA*dG*d[5mC]*d[5mC]*dA*dA*dA*kA*k[5mC]*kA) [Compound 958467]”, the “YAP1 (% UTC)” value was 32 % UTC.

As for “958472 (antisense kT*k[5mC]*k[5mC]*dT*dT*dA*dG*dA*dT*d[5mC]*d[5mC]*dT*dT*k[5mC]*kA*k[5mC]) [Compound 958472]”, the “YAP1 (% UTC)” value was 5 % UTC.

With “958477 (antisense kA*kT*kT*dT*d[5mC]*d[5mC]*dG*dG*dT*dG*d[5mC]*dA*dT*kG*kT*kG) [Compound 958477]”, the “YAP1 (% UTC)” value amounted to 2 % UTC.

In the case of “958482 (antisense kT*k[5mC]*kT*dG*dT*dA*dT*dT*dA*dG*d[5mC]*d[5mC]*dT*kG*kA*kA) [Compound 958482]”, the “YAP1 (% UTC)” value is reported as 10 % UTC.

As for “958487 (kT*k[5mC]*k[5mC]*dA*dA*dA*d[5mC]*dA*dG*dG*d[5mC]*dT*d[5mC]*kA*k[5mC]*kT; antisense) [Compound 958487]”, the “YAP1 (% UTC)” value was determined as 10 % UTC.

Turning to “958492 (kT*kG*kT*d[5mC]*dA*dG*dA*d[5mC]*d[5mC]*dA*dG*dT*dA*kA*kA*kT; antisense) [Compound 958492]”, the “YAP1 (% UTC)” value stood at 12 % UTC.

For “958502 (k[5mC]*kT*kA*dT*dT*dA*dA*d[5mC]*dA*dG*dA*dT*dT*k[5mC]*kA*k[5mC]; antisense) [Compound 958502]”, the “YAP1 (% UTC)” value is 13 % UTC.

In the case of “958507 (kG*kA*kG*d[5mC]*dA*dG*dA*dT*dA*dA*dT*d[5mC]*dG*kA*kG*kA; antisense) [Compound 958507]”, the “YAP1 (% UTC)” value was 6 % UTC.

On to “958512 (k[5mC]*kA*kT*dT*d[5mC]*d[5mC]*dA*d[5mC]*dT*dA*d[5mC]*d[5mC]*dA*k[5mC]*kA*k[5mC]; antisense) [Compound 958512]”, for which the “YAP1 (% UTC)” value is on record as 14 % UTC.

The same series, now with this note: Table 11; A-431 cells, 5,000 cells per well, free uptake, 2,000 nM oligonucleotide, approx. 48 hours; primer probe set RTS36584; Yap1 mRNA normalized to RIBOGREEN, percent of untreated control.
With “958463 (antisense k[5mC]*k[5mC]*kT*dG*dA*dG*dA*d[5mC]*dA*dT*d[5mC]*d[5mC]*d[5mC]*kG*kG*kG) [Compound 958463]”, the “YAP1 (% UTC)” value was 63 % UTC.

For the substance “958468 (antisense kT*kT*kG*dG*dT*dG*dG*d[5mC]*dA*dG*d[5mC]*d[5mC]*dA*kA*kA*kA) [Compound 958468]”, the “YAP1 (% UTC)” value stood at 86 % UTC.

Regarding “958473 (antisense kG*kT*k[5mC]*dT*d[5mC]*d[5mC]*dT*dT*dA*dG*dA*dT*d[5mC]*k[5mC]*kT*kT) [Compound 958473]”, the “YAP1 (% UTC)” value is listed as 5 % UTC.

With “958478 (antisense kG*kG*kA*dA*dA*dT*dT*dT*d[5mC]*d[5mC]*dG*dG*dT*kG*k[5mC]*kA) [Compound 958478]”, the “YAP1 (% UTC)” value is recorded as 14 % UTC.

On to “958483 (antisense kG*kA*kG*dG*dA*dT*dT*dA*dA*dA*dG*dT*dA*kT*k[5mC]*kT) [Compound 958483]”, for which the “YAP1 (% UTC)” value is 17 % UTC.

For the substance “958488 (kA*kG*kG*dA*dA*dT*dG*dG*d[5mC]*dA*dT*d[5mC]*d[5mC]*kA*kT*k[5mC]; antisense) [Compound 958488]”, the “YAP1 (% UTC)” value was 41 % UTC.

Take “958493 (kA*kA*kA*d[5mC]*dA*dG*dT*d[5mC]*dT*dT*d[5mC]*dA*dG*k[5mC]*k[5mC]*kT; antisense) [Compound 958493]”: the “YAP1 (% UTC)” value amounted to 16 % UTC.

“958498 (kG*kA*kG*dT*dA*dT*dG*dT*dG*dG*d[5mC]*dA*dA*kT*kA*kA; antisense) [Compound 958498]”: the “YAP1 (% UTC)” value worked out at 1 % UTC.

Take “958503 (kA*kA*k[5mC]*d[5mC]*dA*dT*d[5mC]*d[5mC]*d[5mC]*dA*dA*dG*d[5mC]*kT*kA*k[5mC]; antisense) [Compound 958503]”: the “YAP1 (% UTC)” value is 15 % UTC.

For the substance “958508 (kG*kA*kG*dA*dG*d[5mC]*dA*dG*dA*dT*dA*dA*dT*k[5mC]*kG*kA; antisense) [Compound 958508]”, the “YAP1 (% UTC)” value came out at 7 % UTC.

Still in this series, the particulars now being: Table 12; A-431 cells, 5,000 cells per well, free uptake, 2,000 nM modified oligonucleotide, approx. 48 hours; RTS36584; normalized to RIBOGREEN; Yap1 mRNA relative to untreated control cells.
For “958464 (antisense kG*k[5mC]*kT*d[5mC]*dA*dT*dG*d[5mC]*dT*dT*dA*dG*dT*k[5mC]*k[5mC]*kA) [Compound 958464]”, the “YAP1 (% UTC)” value is on record as 3* % UTC.

Take “958469 (antisense kG*kG*k[5mC]*dT*d[5mC]*dT*dA*dT*dA*dA*d[5mC]*d[5mC]*dA*kT*kG*kT) [Compound 958469]”: the “YAP1 (% UTC)” value was determined as 17 % UTC.

As to “958474 (antisense kG*kT*kG*dT*d[5mC]*dT*d[5mC]*d[5mC]*dT*dT*dA*dG*dA*kT*k[5mC]*k[5mC]) [Compound 958474]”, the “YAP1 (% UTC)” value is reported as 3 % UTC.

Turning to “958479 (antisense kA*kT*kG*dG*dA*dA*dA*dT*dT*dT*d[5mC]*d[5mC]*dG*kG*kT*kG) [Compound 958479]”, the “YAP1 (% UTC)” value was 15 % UTC.

Consider “958484 (antisense kG*k[5mC]*kA*dG*d[5mC]*dA*dA*dT*dG*dG*dA*d[5mC]*dA*kA*kG*kG) [Compound 958484]”, for which the “YAP1 (% UTC)” value stood at 2 % UTC.

In the case of “958489 (kT*kT*k[5mC]*dT*dA*dA*dG*dT*d[5mC]*dT*dG*dA*dG*kT*kA*kT; antisense) [Compound 958489]”, the “YAP1 (% UTC)” value turned out to be 14 % UTC.

As to “958494 (kT*kA*kG*d[5mC]*dA*d[5mC]*dT*dA*dG*dG*dA*dG*dG*kA*kA*kA; antisense) [Compound 958494]”, the “YAP1 (% UTC)” value is 28 % UTC.

Take “958504 (kA*kT*k[5mC]*dG*dA*dG*dA*dT*dT*dT*dA*dA*dA*kT*kA*kA; antisense) [Compound 958504]”: the “YAP1 (% UTC)” value worked out at 63 % UTC.

As to “958509 (kA*kT*kG*dT*dT*dA*dT*dG*dT*dT*dT*dG*dG*kG*kT*kG; antisense) [Compound 958509]”, the “YAP1 (% UTC)” value is 4 % UTC.

Staying with this series, now noted: Table 13; A-431 cells, 5,000 cells per well, free uptake, 2,000 nM modified oligonucleotide, approx. 48 hours; RTS36584; normalized to RIBOGREEN; Yap1 mRNA relative to untreated control cells.
“958465 (antisense kG*kG*k[5mC]*dT*dT*d[5mC]*dA*dA*dG*dG*dT*dA*dG*kT*k[5mC]*kT) [Compound 958465]”: the “YAP1 (% UTC)” value came to 84 % UTC.

With “958470 (antisense kT*kA*kG*dA*dT*d[5mC]*d[5mC]*dT*dT*d[5mC]*dA*d[5mC]*dA*kG*kA*kT) [Compound 958470]”, the “YAP1 (% UTC)” value is 18 % UTC.

In the case of “958475 (antisense k[5mC]*k[5mC]*kG*dG*dT*dG*d[5mC]*dA*dT*dG*dT*dG*dT*k[5mC]*kT*k[5mC]) [Compound 958475]”, the “YAP1 (% UTC)” value worked out at 37 % UTC.

For “958480 (antisense kA*kA*k[5mC]*dT*dG*dG*d[5mC]*dT*dT*dA*dT*dG*dG*kA*kA*kA) [Compound 958480]”, the “YAP1 (% UTC)” value was found to be 24 % UTC.

Take “958485 (kA*kG*kA*dG*dG*dT*d[5mC]*dA*dG*d[5mC]*dA*dA*dT*kA*k[5mC]*kA; antisense) [Compound 958485]”: the “YAP1 (% UTC)” value was 3 % UTC.

With “958490 (kG*kT*kG*dA*d[5mC]*dA*dT*dG*dA*dA*dG*d[5mC]*dA*kT*k[5mC]*kT; antisense) [Compound 958490]”, the “YAP1 (% UTC)” value was 5 % UTC.

On to “958495 (kG*kG*kT*d[5mC]*dA*dT*dT*dA*dT*dG*dT*dG*dA*k[5mC]*kT*kA; antisense) [Compound 958495]”, for which the “YAP1 (% UTC)” value is listed as 56 % UTC.

“958505 (kG*kA*kT*dA*dA*dT*d[5mC]*dG*dA*dG*dA*dT*dT*kT*kA*kA; antisense) [Compound 958505]”: the “YAP1 (% UTC)” value was 6 % UTC.

As for “958510 (kT*kA*k[5mC]*d[5mC]*dA*d[5mC]*dA*d[5mC]*dT*dA*dT*dT*dA*kT*kA*kA; antisense) [Compound 958510]”, the “YAP1 (% UTC)” value is 43 % UTC.

The record behind these values is patent US11214803B2, “Modulators of YAP1 expression” (Ionis Pharmaceuticals, Inc., priority 2019, dated 2022).
